These results are taken from patent US6586413B2, “Methods and compositions for reducing ischemic injury of the heart by administering adenosine receptor agonists and antagonists” (The United States of America as represented by the …, priority 1999, dated 2003).

Like-named read-outs stand apart in the source and are kept apart here.

Data set [1] relates to cardiac ventricular myocytes cultured from chick embryos. As to the kind of experiment: Hypoxia-induced myocyte injury, agent present during prolonged (90 min) hypoxia with glucose deprivation. It counts as cell-based. To be noted: for cardioprotective effect when present during prolonged hypoxia (CK released, % myocytes killed): agonist present during prolonged hypoxia/simulated ischemia; for creatine kinase released during prolonged simulated ischemia: increasing concentrations, presence and absence of DPCPX (FIGS. 3A-3D). How it is done:
Ventricular cells were cultured from chick embryos 14 days in ovo as previously described (16, 23). Cells were cultivated in a humidified 5% CO2-95% air mixture at 37° C. […] The medium was changed to a HEPES-buffered medium containing (mM) 139 NaCl, 4.7 KCl, 0.5 MgCl2, 0.9 CaCl2, 5 HEPES (N-2-hydroxyethylpiperazine-N′-2-ethanesulfonic acid) and 2% fetal bovine serum, pH 7.4, 37° C. before exposing the myocytes to the various conditions at 37° C. Control myocytes were maintained in the HEPES-buffered media under room air. Ninety-minute exposure of the myocytes to hypoxia with glucose deprivation was used to induce cell injury. Hypoxia was produced by placing the cells in a hypoxic incubator (NuAire) where O2 was replaced by N2 as previously described (16,23). Effects of adenosine receptor agonists and antagonists on the extent of myocyte injury were determined by exposure of the prepared cells to these agents during the prolonged hypoxia.
(§1) Determination of myocyte injury was made at the end of the ninety-minute hypoxia, at which time myocytes were taken out of the hypoxic incubator and re-exposed to room air (normal % O2). Aliquots of the media were then obtained for creatine kinase (CK) activity measurement, which is followed by quantitation of the number of viable cells. Measurement of basal level of cell injury was made after parallel incubation of control cells under normal % O2. The extent of hypoxia-induced injury to the ventricular cell was quantitatively determined by the percentages of cells killed and by the amount of CK released into the media according to a previously described method (16, 23). […] In brief, the media were replaced with a trypsin-EDTA buffer to detach the cells, which was then followed by sedimentation of the viable myocytes. Parallel changes in % cells killed and CK released (16, 23) further validated this assay for % cells killed. The amount of CK was measured as enzyme activity (unit/mg), and increases in CK activity above the control level were determined. The percentage of cells killed was calculated as the number of cells obtained from the control group (representing cells not subjected to any hypoxia or drug treatment) minus the number of cells from the treatment group divided by number of cells in control group multiplied by 100%.

The target in data set [2] is A3 receptor. To be noted: cited from earlier work.
In data set [3] the test system is cardiac ventricular myocytes cultured from chick embryos. As to the kind of experiment: Hypoxia-induced myocyte injury, agent present during prolonged (90 min) hypoxia with glucose deprivation. The note with it: agonist added upon reoxygenation after 90 minute hypoxia, kept one additional hour; hypoxia alone 26.5±1.0. It counts as cell-based.
The test system of data set [4] is ventricular myocytes cultured from chick embryos. As to the kind of experiment: Pharmacological preconditioning: 5 min exposure to agent, then 90 min simulated ischemia. The note with it: for preconditioning / cardioprotective effect: agent alone, 5 min exposure before 90 min ischemia. The format is cell-based. How it is done:
FIG. 14 is a graph showing that the partial A1 receptor agonist, 8-butylaminoCPA, mimics the cardioprotective effect of ischemic preconditioning. Ventricular myocytes were cultured from chick embryos 14 days in ovo. The ability of the partial A1 agonist, 8-butylaminoCPA (8-butylamino-N^6-cyclopentyladenosine), to induce preconditioning was determined. In brief, myocytes were exposed to 8-butylaminoCPA at the indicated concentrations for 5 min, incubated for 10 min with agonist-free medium, and then exposed to simulated ischemia for 90 min. The extent of myocyte injury was quantitated at the end of the 90 min period by determinating the percentage of cells killed and the amount of creatine kinase (CK) released (units per milligram of cell protein). Data are means±SE of values from five independent experiments.
as §1
Media were then replaced with fresh media, which was then followed by exposure to 90-minute simulated ischemia and the data graphed.

Data set [5] relates to isolated cardiac myocytes. As to the kind of experiment: Apoptotic cell death by DNA laddering on 1.5% agarose gel. The format is cell-based. To be noted: for apoptosis (DNA laddering): prolonged moderate ischemia, 17 hours with 2-3% O2; for apoptotic cell death (DNA laddering): 90 min ischemia and 30 min reoxygenation, 10 nM Cl-IB-MECA, 1 μM MRS1191. How it is done: Such smearing is indicative of a culmination of the apoptotic cell death pathway. Isolated cardiac myocytes were exposed to 90-min ischemia and 30-min reoxygenation (lanes 4 and 5). […] Lanes 1 and 2 represent myocytes not exposed to ischemia or any agent. Data were representative of three experiments.
Isolated cardiac myocytes were exposed to prolonged moderate simulated ischemia (17 hours with 2-3% O2). Lane 3 represents myocytes not exposed to ischemia or any agent. Lane 5 represents myocytes exposed to 17 hours of ischemia. […] Data were representative of three experiments.
Lane 3 represents myocytes not exposed to any agent. Lane 5 represents cardiac myocytes exposed (for three hours) to an agent (a P2X receptor agonist, 2-methylthioATP) known to increase intracellular calcium concentration. Prolonged exposure to 2-methylthioATP or UTP caused increased apoptosis (Lane 7). […] Data were representative of two experiments.
The effects of agents which target the adenosine receptor on apoptosis were initially examined in isolated cardiac myocytes exposed to ischemia (for 90 minutes and 30 minutes of reoxygenation) or agents which increase intracellular calcium levels. Increasing the level of intracellular calcium concentration induces non-ischemia-related apoptosis in vitro. Apoptotic cell death of cardiac myocytes was assessed by determining the extent of smearing or “DNA laddering” on 1.5% agarose gels.

The target in data set [6] is T1, human adenosine A3 receptor (Homo sapiens, UniProt P0DMS8).
T1 construct: full length cDNA encoding human adenosine A3 receptor subcloned in pcDNA3; expressed in transfected cells; host or cells: chick embryo atrial myocytes, transient calcium phosphate transfection with pcDNA3/hA3R
T1 sequence (P0DMS8 1-318): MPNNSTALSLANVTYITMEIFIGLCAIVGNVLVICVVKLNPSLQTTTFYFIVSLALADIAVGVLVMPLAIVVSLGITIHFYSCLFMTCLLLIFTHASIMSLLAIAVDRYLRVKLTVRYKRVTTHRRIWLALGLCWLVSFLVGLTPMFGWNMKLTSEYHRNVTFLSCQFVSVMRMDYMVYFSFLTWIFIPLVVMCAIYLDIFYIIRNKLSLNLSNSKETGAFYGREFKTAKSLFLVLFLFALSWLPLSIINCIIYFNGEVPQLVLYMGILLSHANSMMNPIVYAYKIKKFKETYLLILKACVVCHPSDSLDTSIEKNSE
As to the kind of experiment: Preconditioning in chick atrial myocytes transfected with the human A3 receptor. It counts as cell-based. The note with it: hA3R-transfected vs vector-transfected atrial myocytes. How it is done:
Transfection of chick atrial myocytes with the human A3 receptor—Atrial cells were cultured from chick embryos 14 days in ovo and transiently transfected with pcDNA3 (empty vector) or with pcDNA3/hA3R (full length cDNA encoding human adenosine A3 receptor subcloned in pcDNA3) using the calcium phosphate precipitation method. Forty-eight hours after transfection, the cells were exposed to the compounds of the invention and the percentage of myocytes killed during simulated ischemia was determined.
The transfected myocytes were then exposed to the compound for 5 minutes, which was followed by replacement with fresh media and myocytes exposed to normal conditions (non-ischemic) for 10 minutes prior to being exposed to ninety minutes of ischemia. The decrease in the number of myocytes killed in A3 receptor cDNA-transfected myocytes as compared to vector-transfected myocytes was plotted as a function of the concentration of the compound. This decrease in myocytes killed represented an index of the protection mediated via the human adenosine A3 receptor.

Turning to `NCCNC(=O)Cc1ccc(NC(=O)Cc2ccc(Nc3ncnc4c3ncn4[C@@H]3O[C@H](CO)[C@@H](O)[C@H]3O)cc2)cc1` [ADAC, N^6-[4-[[[4-[[[(2-aminoethyl)amino]carbonyl]methyl]anilino]carbonyl]methyl]phenyl]adenosine], the “cardioprotective effect when present during prolonged hypoxia (CK released, % myocytes killed)” value in data set [1] was “able to protect the myocytes when present during the prolonged hypoxia”. Also, in data set [2] (Compound 8 table), the Ki (in general, a measure of affinity in units of concentration, obtained from inhibition or displacement) was 4 nM.
Regarding `OC[C@H]1O[C@@H](n2cnc3c(NC4CCCC4)nc(Cl)nc32)[C@H](O)[C@@H]1O` [CCPA, 2-chloro-N^6-cyclopentyladenosine], the “% myocytes killed” value in data set [3] is 22.1±1.5%. Besides, the “cardioprotective effect when present during prolonged hypoxia (CK released, % myocytes killed)” value in data set [1] is reported as “caused a dose-dependent reduction in the percentage of myocytes killed”. Besides, the “preconditioning / cardioprotective effect” value in data set [4] was “causes a pronounced cardioprotective effect in the cardiac myocyte”.
Turning to `Cn1c(=O)c2c(nc(C=Cc3cccc(Cl)c3)n2C)n(C)c1=O` [CSC, 8-(3-chlorostyryl)caffeine], the “apoptosis (DNA laddering)” value in data set [5] is listed as “reduced apoptosis induced by the prolonged moderate ischemia”.
Consider `CNC(=O)[C@H]1O[C@@H](n2cnc3c(NCc4cccc(I)c4)nc(Cl)nc32)[C@H](O)[C@@H]1O` [Cl-IB-MECA, 2-chloro-N^6-(3-iodobenzyl)adenosine-5′-N-methyluronamide], for which, in data set [3], the “% myocytes killed” value was determined as 23.0±1.4%. Moreover, the “cardioprotective effect when present during prolonged hypoxia (CK released, % myocytes killed)” value in data set [1] is recorded as “capable of protecting the cardiac myocytes against hypoxia-induced injury”. Further, the “preconditioning / cardioprotective effect” value in data set [4] was “caused a potent cardioprotective effect”. In data set [5], the “apoptotic cell death (DNA laddering)” value was “reduced apoptotic cell death of cardiac myocytes” and the “apoptosis (DNA laddering)” value is on record as “reduced apoptosis”. Besides, the “apoptotic cell death in the presence of 2-methylthioATP” value in data set [5] (co-incubation, no ischemia) is on record as “resulted in a decrease in apoptotic cell death”.
For `CNC(=O)C1OC(n2cnc3c(NCc4cccc(I)c4)nc(NC)nc32)C(O)C1O` (stereo not drawn) [MRS 537], the “creatine kinase released during prolonged simulated ischemia” value in data set [1] is “cardioprotective effects”. Also, the “preconditioning / protection mediated via human adenosine A3 receptor” value in data set [6] is on record as “can exert the cardioprotective effect of preconditioning via the human adenosine A3 receptor”.
For `CNC(=O)C1CC(O)C(n2cnc3c(NCc4cccc(I)c4)nc(Cl)nc32)O1` (stereo not drawn) [MRS 584], in data set [1], the “creatine kinase released during prolonged simulated ischemia” value is recorded as “cardioprotective effects”. Besides, the “preconditioning / protection mediated via human adenosine A3 receptor” value in data set [6] is recorded as “can exert the cardioprotective effect of preconditioning via the human adenosine A3 receptor”.
Consider `CCOC(=O)C1=C(C)NC(c2ccccc2)=C(C(=O)OCc2ccccc2)C1C#Cc1ccccc1` (stereo not drawn) [MRS 1191, 3-ethyl-5-benzyl-2-methyl-6-phenyl-4-phenylethynyl-1,4-(1)-dihydropyridine-3,5-dicarboxylate], for which, in data set [1] (antagonist with A1 agonist during prolonged hypoxia), the “effect of antagonist on A1 agonist (CCPA, CHA, ADAC)-induced cardioprotection” value is “neither MRS 1191 nor MRS 1097 was able to block the CCPA-induced cardioprotection”. Also, in data set [1] (antagonist with A3 agonist during prolonged hypoxia), the “effect of antagonist on A3 agonist (IB-MECA, Cl-IB-MECA)-induced cardioprotection” value is given as “blocked the Cl-IB-MECA-induced cardioprotection”. Besides, the “apoptotic cell death (DNA laddering)” value in data set [5] was “but not the A3 antagonist (MRS1191) reduced apoptotic cell death”.
In the case of `CNC(=O)C1OC(n2cnc3c(NCc4cccc(C#CCNC(=O)CCC(=O)Nc5cccc(/C=C/c6nc7c(c(=O)n(C)c(=O)n7C)n6C)c5)c4)ncnc32)C(O)C1O` (stereo not drawn) [MRS 1528], in data set [4] (CGS21680 (0.3 μM)), the “preconditioning effect in presence of A2a agonist CGS21680” value is reported as “protective effect of low concentrations of MRS1528 is attenuated by the A2a agonist CGS21680 whereas the protective effect of high concentrations of MRS1528 is not affected”. The “preconditioning effect in presence of A2a antagonist CSC” value in data set [4] (CSC (1 μM)) is on record as “unaffected by the A2a receptor antagonist CSC”. In data set [4], the “preconditioning / cardioprotective effect” value was “can activate A3 receptor to induce preconditioning and can simultaneously block the A2a receptor to enhance its preconditioning effect”. Moreover, the “preconditioning / protection mediated via human adenosine A3 receptor” value in data set [6] was “can cause preconditioning of the cardiac myocytes via human adenosine A3 receptor”.
On to `CNC(=O)C1OC(n2cnc3c(NCc4cccc(C#CCNC(=O)Cc5ccc(NC(=O)Cc6ccc(Nc7ncnc8c7ncn8C7OC(CO)C(O)C7O)cc6)cc5)c4)ncnc32)C(O)C1O` (stereo not drawn) [MRS 1543], for which the “protective effect in combined presence of DPCPX and MRS1191” value in data set [4] (DPCPX (1 μM) plus MRS1191 (1 μM)) was “completely abolished the protective effect of MRS1543”. Moreover, the “preconditioning / cardioprotective effect” value in data set [4] was “can pharmacologically precondition the cardiac myocyte and induce a potent cardioprotective effect”. Further, in data set [4] (excess DPCPX (1 μM)), the “protective effect in presence of DPCPX” value is on record as “only partially blocked by A1 antagonist DPCPX”. Also, in data set [4] (excess MRS1191 (1 μM)), the “protective effect in presence of MRS1191” value was “only partially attenuated by the A3 antagonist MRS1191”. Further, the “preconditioning / protection mediated via human adenosine A3 receptor” value in data set [6] was “can precondition and induces a cardioprotective effect via the human adenosine A3 receptor”.
With `CCNC(=O)C1OC(n2cnc3c(NC4CCCCC4)ncnc32)C(O)C1O` (stereo not drawn) [N^6-cyclohexyl NECA, N6-cyclohexyl 5′-N-ethylcarboxamidoadenosine], the Ki in data set [2] (Table II) is 16 nM.
`O=c1ccn([C@@H]2O[C@H](COP(=O)(O)OP(=O)(O)OP(=O)(O)O)[C@@H](O)[C@H]2O)c(=O)[nH]1` [UTP]: in data set [5] (no ischemia, agents that increase intracellular calcium), the “apoptotic cell death caused by prolonged exposure to the agent” value is “caused an increase in apoptotic cell death”.
